According to PMC7180948, “New Insights into 4-Anilinoquinazolines as Inhibitors of Cardiac Troponin I–Interacting Kinase (TNNi3K)” (Molecules, 2020):

Key:
Assay in all cases: biochemical
Parameters in all cases: KINOMEscan competition binding panel (Eurofins DiscoverX), single concentration, % inhibition
[1] = biological target: AAK1 (Homo sapiens, UniProt Q2M2I8); details: read-out: 7 at 1 µM % inhibition
Summary of the method: (§1)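 Values come from single-concentration (1 µM) profiling in the Eurofins DiscoverX KINOMEscan competition-binding platform, which covers over 400 kinases.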

[2] = biological target: T1, ABL1(Q252H)-phosphorylated (Homo sapiens, UniProt P00519, Q252H); details: read-out: 7 at 1 µM % inhibition
T1 construct: phosphorylated
Summary of the method: as §1

[3] = biological target: AKT3 (Homo sapiens, UniProt Q9Y243); details: read-out: 7 at 1 µM % inhibition
Chain of AKT3 (Q9Y243 whole entry): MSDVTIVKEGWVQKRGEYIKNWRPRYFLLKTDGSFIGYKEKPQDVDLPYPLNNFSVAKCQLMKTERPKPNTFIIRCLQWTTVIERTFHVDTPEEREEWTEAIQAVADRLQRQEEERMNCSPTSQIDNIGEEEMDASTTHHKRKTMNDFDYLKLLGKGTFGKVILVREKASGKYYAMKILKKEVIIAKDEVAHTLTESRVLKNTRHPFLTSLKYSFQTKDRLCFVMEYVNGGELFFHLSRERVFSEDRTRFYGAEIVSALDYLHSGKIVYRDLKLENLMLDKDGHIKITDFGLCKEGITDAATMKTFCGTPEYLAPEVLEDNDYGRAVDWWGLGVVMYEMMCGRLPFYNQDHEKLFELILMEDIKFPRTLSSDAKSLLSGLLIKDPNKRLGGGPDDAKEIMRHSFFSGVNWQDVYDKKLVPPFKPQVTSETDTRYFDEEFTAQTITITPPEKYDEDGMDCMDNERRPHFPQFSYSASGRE
Summary of the method: as §1

[4] = biological target: BMPR1B (Homo sapiens, UniProt O00238); details: read-out: 7 at 1 µM % inhibition
Summary of the method: as §1

[5] = biological target: BRAF (Homo sapiens, UniProt P15056); details: read-out: 7 at 1 µM % inhibition
Summary of the method: as §1

[6] = biological target: BRSK1 (Homo sapiens, UniProt Q8TDC3); details: read-out: 7 at 1 µM % inhibition
Summary of the method: as §1

[7] = biological target: T2, CDC2L5 (Homo sapiens, UniProt Q14004); details: read-out: 7 at 1 µM % inhibition
T2 construct: gene CDK13
Summary of the method: as §1

[8] = biological target: CDK7 (Homo sapiens, UniProt P50613); details: read-out: 7 at 1 µM % inhibition
Summary of the method: as §1

[9] = biological target: CLK2 (Homo sapiens, UniProt P49760); details: read-out: 7 at 1 µM % inhibition
Chain of CLK2 (P49760 whole entry): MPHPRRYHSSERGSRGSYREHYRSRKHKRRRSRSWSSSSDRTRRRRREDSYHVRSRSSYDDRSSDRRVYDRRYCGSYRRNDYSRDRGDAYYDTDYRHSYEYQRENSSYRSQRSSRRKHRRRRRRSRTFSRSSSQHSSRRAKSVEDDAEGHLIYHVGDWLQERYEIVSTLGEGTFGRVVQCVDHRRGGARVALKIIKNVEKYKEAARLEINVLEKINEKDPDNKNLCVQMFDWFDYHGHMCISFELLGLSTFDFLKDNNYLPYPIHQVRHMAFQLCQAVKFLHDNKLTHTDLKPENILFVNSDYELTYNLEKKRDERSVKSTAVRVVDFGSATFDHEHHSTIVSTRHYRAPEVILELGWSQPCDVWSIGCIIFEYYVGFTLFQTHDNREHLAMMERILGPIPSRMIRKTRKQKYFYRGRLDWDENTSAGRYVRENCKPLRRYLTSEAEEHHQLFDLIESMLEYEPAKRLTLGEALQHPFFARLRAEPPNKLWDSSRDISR
Summary of the method: as §1

[10] = biological target: T3, ERK2 (Homo sapiens, UniProt P28482); details: read-out: 7 at 1 µM % inhibition
T3 construct: gene MAPK1
Summary of the method: as §1

[11] = biological target: T4, FAK (Homo sapiens, UniProt Q05397); details: read-out: 7 at 1 µM % inhibition
T4 construct: gene PTK2
T4 sequence (Q05397 whole entry): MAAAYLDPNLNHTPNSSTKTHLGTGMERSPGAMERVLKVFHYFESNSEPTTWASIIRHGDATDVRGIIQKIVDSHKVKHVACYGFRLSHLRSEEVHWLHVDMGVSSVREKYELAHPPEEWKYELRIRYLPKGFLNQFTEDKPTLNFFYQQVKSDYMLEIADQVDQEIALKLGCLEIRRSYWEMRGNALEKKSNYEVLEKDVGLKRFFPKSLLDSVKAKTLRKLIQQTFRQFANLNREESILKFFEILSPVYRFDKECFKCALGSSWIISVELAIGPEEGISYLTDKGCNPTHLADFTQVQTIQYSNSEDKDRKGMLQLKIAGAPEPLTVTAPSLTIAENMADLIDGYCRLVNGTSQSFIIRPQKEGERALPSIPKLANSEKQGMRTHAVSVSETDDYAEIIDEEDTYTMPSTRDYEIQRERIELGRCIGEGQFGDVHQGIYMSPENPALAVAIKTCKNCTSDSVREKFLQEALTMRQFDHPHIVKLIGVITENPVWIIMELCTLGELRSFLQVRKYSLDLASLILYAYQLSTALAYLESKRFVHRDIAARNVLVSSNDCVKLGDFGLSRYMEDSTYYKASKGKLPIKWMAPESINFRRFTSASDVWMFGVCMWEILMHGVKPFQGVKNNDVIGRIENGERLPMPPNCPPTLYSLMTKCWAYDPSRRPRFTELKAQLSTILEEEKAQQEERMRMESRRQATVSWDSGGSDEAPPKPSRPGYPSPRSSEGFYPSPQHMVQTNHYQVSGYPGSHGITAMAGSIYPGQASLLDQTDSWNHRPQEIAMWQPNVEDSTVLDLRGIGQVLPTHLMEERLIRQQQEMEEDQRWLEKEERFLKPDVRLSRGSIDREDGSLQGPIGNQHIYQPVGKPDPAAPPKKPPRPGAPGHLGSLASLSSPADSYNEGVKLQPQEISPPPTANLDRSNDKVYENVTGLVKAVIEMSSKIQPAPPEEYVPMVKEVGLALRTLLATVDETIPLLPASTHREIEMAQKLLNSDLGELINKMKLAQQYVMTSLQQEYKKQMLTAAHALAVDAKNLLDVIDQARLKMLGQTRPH
Summary of the method: as §1

[12] = biological target: FLT3-autoinhibited (Homo sapiens, UniProt P36888); details: read-out: 7 at 1 µM % inhibition
Summary of the method: as §1

[13] = biological target: FLT4 (Homo sapiens, UniProt P35916); details: read-out: 7 at 1 µM % inhibition
Summary of the method: as §1

[14] = biological target: HIPK3 (Homo sapiens, UniProt Q9H422); details: read-out: 7 at 1 µM % inhibition
Summary of the method: as §1

[15] = biological target: MAP3K2 (Homo sapiens, UniProt Q9Y2U5); details: read-out: 7 at 1 µM % inhibition
Summary of the method: as §1

[16] = biological target: T5, MRCKB (Homo sapiens, UniProt Q9Y5S2); details: read-out: 7 at 1 µM % inhibition
T5 construct: gene CDC42BPB
Summary of the method: as §1

[17] = biological target: PDGFRA (Homo sapiens, UniProt P16234); details: read-out: 7 at 1 µM % inhibition
Chain of PDGFRA (P16234 whole entry): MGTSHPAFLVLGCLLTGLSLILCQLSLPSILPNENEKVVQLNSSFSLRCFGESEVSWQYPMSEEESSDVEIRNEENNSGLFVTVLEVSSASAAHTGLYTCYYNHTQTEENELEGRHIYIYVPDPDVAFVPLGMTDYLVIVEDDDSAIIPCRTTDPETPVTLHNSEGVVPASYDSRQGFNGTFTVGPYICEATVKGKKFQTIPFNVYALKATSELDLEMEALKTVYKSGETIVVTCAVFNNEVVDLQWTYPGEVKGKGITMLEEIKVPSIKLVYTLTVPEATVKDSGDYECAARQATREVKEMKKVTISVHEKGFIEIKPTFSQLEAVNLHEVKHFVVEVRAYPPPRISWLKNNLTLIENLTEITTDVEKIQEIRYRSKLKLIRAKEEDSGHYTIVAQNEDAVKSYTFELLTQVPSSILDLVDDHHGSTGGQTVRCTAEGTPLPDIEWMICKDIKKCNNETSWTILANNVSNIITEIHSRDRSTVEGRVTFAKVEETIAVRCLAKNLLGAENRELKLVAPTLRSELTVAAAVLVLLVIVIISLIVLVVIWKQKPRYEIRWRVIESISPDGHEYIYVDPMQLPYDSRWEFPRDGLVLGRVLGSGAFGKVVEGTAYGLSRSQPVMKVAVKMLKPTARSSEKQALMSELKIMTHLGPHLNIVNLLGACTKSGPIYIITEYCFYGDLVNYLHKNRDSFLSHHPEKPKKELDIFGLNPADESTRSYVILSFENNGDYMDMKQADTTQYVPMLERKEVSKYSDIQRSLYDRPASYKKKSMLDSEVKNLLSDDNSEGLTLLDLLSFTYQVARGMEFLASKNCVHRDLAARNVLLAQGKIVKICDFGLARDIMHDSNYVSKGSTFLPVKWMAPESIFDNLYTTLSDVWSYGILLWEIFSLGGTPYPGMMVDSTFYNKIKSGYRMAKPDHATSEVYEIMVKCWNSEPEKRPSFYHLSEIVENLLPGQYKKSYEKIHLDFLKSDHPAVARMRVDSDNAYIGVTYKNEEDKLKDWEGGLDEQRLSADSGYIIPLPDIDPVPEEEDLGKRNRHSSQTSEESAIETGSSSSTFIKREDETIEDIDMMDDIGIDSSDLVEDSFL
Summary of the method: as §1

[18] = biological target: T6, PFPK5(P.falciparum) (Plasmodium falciparum, UniProt P61075); details: read-out: 7 at 1 µM % inhibition (pathogen kinases)
T6 construct: gene CRK2
Summary of the method: as §1

[19] = biological target: PIP5K1A (Homo sapiens, UniProt Q99755); details: read-out: 7 at 1 µM % inhibition
Chain of PIP5K1A (Q99755 whole entry): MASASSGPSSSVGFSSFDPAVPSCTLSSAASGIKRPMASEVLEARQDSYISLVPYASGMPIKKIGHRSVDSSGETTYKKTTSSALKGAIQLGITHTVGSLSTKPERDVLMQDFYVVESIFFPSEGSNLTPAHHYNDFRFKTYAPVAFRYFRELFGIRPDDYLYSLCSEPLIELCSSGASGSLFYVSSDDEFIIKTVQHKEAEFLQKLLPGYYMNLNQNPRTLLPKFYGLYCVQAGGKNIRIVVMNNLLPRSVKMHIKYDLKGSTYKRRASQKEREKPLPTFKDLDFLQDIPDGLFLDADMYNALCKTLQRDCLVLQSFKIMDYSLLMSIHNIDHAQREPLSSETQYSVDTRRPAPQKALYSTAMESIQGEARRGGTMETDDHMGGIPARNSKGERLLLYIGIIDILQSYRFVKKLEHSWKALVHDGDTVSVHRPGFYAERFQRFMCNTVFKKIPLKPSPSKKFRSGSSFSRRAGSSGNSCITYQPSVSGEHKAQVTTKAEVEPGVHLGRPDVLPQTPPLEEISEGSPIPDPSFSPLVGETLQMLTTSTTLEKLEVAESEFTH
Summary of the method: as §1

[20] = biological target: PRKD3 (Homo sapiens, UniProt O94806); details: read-out: 7 at 1 µM % inhibition
Summary of the method: as §1

[21] = biological target: T7, PYK2 (Homo sapiens, UniProt Q14289); details: read-out: 7 at 1 µM % inhibition
T7 construct: gene PTK2B
Summary of the method: as §1

[22] = biological target: SRMS (Homo sapiens, UniProt Q9H3Y6); details: read-out: 7 at 1 µM % inhibition
Summary of the method: as §1

[23] = biological target: TNIK (Homo sapiens, UniProt Q9UKE5); details: read-out: 7 at 1 µM % inhibition
Chain of TNIK (Q9UKE5 whole entry): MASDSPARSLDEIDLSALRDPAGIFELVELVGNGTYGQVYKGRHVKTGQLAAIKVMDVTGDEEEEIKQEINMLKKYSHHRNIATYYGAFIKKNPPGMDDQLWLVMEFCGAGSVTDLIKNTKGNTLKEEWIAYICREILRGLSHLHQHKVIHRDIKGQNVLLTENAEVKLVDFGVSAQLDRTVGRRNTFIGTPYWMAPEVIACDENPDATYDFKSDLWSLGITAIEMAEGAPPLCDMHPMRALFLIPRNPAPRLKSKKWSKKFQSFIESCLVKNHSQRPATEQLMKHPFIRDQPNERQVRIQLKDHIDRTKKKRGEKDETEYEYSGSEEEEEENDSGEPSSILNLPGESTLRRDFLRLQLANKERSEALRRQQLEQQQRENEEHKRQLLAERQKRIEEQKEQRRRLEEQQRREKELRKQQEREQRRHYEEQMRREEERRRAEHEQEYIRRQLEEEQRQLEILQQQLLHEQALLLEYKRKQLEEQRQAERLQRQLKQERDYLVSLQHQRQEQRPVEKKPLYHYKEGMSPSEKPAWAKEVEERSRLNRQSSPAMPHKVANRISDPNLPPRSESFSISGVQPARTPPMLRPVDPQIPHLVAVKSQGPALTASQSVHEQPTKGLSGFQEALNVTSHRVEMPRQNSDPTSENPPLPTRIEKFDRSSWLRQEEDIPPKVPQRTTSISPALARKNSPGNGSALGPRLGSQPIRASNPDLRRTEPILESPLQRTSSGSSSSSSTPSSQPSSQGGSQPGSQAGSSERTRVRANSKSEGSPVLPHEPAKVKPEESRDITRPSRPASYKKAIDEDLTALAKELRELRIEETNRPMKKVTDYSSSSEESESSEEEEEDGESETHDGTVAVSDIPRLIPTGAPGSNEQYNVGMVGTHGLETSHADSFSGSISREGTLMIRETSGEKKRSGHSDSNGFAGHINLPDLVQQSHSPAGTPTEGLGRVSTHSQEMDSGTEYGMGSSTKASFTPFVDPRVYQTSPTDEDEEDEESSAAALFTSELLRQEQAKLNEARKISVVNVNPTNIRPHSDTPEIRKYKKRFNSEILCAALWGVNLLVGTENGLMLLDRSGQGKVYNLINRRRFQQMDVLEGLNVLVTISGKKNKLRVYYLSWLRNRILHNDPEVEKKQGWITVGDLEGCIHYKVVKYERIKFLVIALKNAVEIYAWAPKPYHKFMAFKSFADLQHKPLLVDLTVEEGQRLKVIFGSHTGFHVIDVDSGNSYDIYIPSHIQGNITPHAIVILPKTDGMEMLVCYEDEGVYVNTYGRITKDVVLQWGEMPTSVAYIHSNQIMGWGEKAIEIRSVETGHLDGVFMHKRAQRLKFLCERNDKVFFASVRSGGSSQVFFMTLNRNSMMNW
Summary of the method: as §1

[24] = biological target: TNK2 (Homo sapiens, UniProt Q07912); details: read-out: 7 at 1 µM % inhibition
Summary of the method: as §1

Which inhibition at 1 µM [1] does the source give for CNS(=O)(=O)c1ccc(N(C)C)c(Nc2ncnc3cc(OC)c(OC)cc23)c1 [compound 7, 3-((6,7-dimethoxyquinazolin-4-yl)amino)-4-(dimethylamino)-N-methylbenzenesulfonamide] here?
The inhibition at 1 µM was 0%.

And the inhibition at 1 µM [2]?
The inhibition at 1 µM was 79%.

What about the inhibition at 1 µM [3] of the same compound?
Its inhibition at 1 µM is 0%.

And the inhibition at 1 µM [4]?
Its inhibition at 1 µM is 34%.

And the inhibition at 1 µM [5]?
Its inhibition at 1 µM is 84%.

What about the inhibition at 1 µM [6] of the same compound?
Its inhibition at 1 µM is 0%.

And the inhibition at 1 µM [7]?
Its inhibition at 1 µM is 0%.

And the inhibition at 1 µM [8]?
Its inhibition at 1 µM is 6%.

What about the inhibition at 1 µM [9] of the same compound?
The inhibition at 1 µM was 7%.

What about the inhibition at 1 µM [10] of the same compound?
Its inhibition at 1 µM is 0%.

What about the inhibition at 1 µM [11] of the same compound?
The inhibition at 1 µM was 8%.

What about the inhibition at 1 µM [12] of the same compound?
The inhibition at 1 µM was 12%.

What about the inhibition at 1 µM [13] of the same compound?
The inhibition at 1 µM was 0%.

What about the inhibition at 1 µM [14] of the same compound?
Its inhibition at 1 µM is 0%.

And the inhibition at 1 µM [15]?
The inhibition at 1 µM was 12%.

What about the inhibition at 1 µM [16] of the same compound?
Its inhibition at 1 µM is 0%.

What about the inhibition at 1 µM [17] of the same compound?
Its inhibition at 1 µM is 69%.

What about the inhibition at 1 µM [18] of the same compound?
Its inhibition at 1 µM is 6%.

What about the inhibition at 1 µM [19] of the same compound?
The inhibition at 1 µM was 0%.

And the inhibition at 1 µM [20]?
The inhibition at 1 µM was 7%.

And the inhibition at 1 µM [21]?
The inhibition at 1 µM was 0%.

And the inhibition at 1 µM [22]?
The inhibition at 1 µM was 41%.

And the inhibition at 1 µM [23]?
The inhibition at 1 µM was 7%.

And the inhibition at 1 µM [24]?
Its inhibition at 1 µM is 26%.
